Tests used:
IMR-32 = assay: Antiproliferative activity against human IMR32 cells by MTS reduction assay
[1] = target: Dual specificity tyrosine-phosphorylation-regulated kinase 1A (Rattus norvegicus, UniProt Q63470); assay: Inhibition of rat recombinant GST-tagged DYRK1A using myelin protein as substrate and [gamma32]-ATP after 30 mins by scintillation counting
[2] = Antiproliferative activity against human primary fibroblasts after 48 hrs by resazurin reduction test; assay type: cell-based; details: Fibroblast
MCF7 = assay: Antiproliferative activity against human MCF7 cells after 48 hrs by resazurin reduction test; details: MCF7, 48 h
SH-SY5Y = assay: Antiproliferative activity against human SH-SY5Y cells by MTS reduction assay
PA-1 = assay: Antiproliferative activity against human PA1 cells after 48 hrs by resazurin reduction test; assay type: functional, cell-based; details: PA-1, 48 h
DU-145 = assay: Antiproliferative activity against human DU145 cells after 48 hrs by resazurin reduction test; assay type: functional, cell-based; details: DU-145, 48 h
[3] = Inhibition of pig brain CK1 delta/epsilon using RRKHAAIGpSAYSITA as substrate; parameters: species or system Sus scrofa
HT-22 = assay: Antiproliferative activity against mouse HT22 cells by MTS reduction assay
PC-3 = assay: Antiproliferative activity against human PC3 cells after 48 hrs by resazurin reduction test; details: PC-3, 48 h
[4] = target: Dual specificity protein kinase CLK1 (Homo sapiens, UniProt P49759)
[5] = target: Cyclin-dependent kinase 5/CDK5 activator 1 (Homo sapiens, UniProt Q00535); assay: Inhibition of human recombinant CDK5/p25 using Histone H1 and [gamma32]-ATP after 30 mins by scintillation counting; assay type: protein-complex assay
[6] = target: Glycogen synthase kinase-3 (Sus scrofa, UniProt B2LUN4+I6LNT8); assay: Inhibition of pig brain GSK-3alpha/beta using YRRAAVPPSPSLSRHSSPHQSpEDEEE as substrate

Sequence of Cyclin-dependent kinase 5/CDK5 activator 1 (Q00535 whole entry): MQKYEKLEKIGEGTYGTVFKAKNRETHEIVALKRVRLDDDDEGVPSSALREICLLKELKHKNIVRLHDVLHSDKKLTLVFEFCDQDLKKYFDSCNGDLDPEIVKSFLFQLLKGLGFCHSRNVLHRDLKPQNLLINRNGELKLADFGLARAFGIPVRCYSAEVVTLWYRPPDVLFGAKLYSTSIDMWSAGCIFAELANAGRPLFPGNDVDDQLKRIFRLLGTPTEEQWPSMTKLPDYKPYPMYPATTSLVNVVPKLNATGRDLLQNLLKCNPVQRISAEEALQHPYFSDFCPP
Sequence of Cyclin-dependent kinase 5/CDK5 activator 1 (Q15078 whole entry, further chain): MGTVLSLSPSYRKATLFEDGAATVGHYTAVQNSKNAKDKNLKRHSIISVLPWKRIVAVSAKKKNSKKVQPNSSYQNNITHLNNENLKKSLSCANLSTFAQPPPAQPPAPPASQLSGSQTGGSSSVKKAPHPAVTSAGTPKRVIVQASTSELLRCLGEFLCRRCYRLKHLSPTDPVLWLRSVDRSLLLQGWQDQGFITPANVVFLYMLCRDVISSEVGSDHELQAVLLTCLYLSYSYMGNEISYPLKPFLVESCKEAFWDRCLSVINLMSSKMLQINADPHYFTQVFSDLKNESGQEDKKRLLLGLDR
Sequence of Dual specificity protein kinase CLK1 (P49759 whole entry): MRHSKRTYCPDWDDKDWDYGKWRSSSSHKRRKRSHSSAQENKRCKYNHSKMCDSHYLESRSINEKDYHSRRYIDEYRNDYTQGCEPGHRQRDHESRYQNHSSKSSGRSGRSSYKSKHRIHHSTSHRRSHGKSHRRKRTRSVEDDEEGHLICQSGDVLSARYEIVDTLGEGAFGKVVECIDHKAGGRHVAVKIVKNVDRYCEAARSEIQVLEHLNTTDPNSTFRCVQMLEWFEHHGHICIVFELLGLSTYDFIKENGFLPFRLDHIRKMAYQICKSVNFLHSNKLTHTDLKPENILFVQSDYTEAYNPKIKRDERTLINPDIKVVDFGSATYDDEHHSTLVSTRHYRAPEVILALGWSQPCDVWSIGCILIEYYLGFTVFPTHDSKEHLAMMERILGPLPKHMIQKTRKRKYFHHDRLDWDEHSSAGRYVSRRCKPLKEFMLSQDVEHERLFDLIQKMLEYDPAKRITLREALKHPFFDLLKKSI

Compound	IC50 (IMR-32)	IC50 [1]	IC50 [2]	IC50 (MCF7)	IC50 (SH-SY5Y)	IC50 (PA-1)	IC50 (DU-145)	IC50 [3]	IC50 (HT-22)	IC50 (PC-3)	IC50 [4]	IC50 [5]	IC50 [6]
Nc1ncc(I)c(-c2c[nH]c3ccc([N+](=O)[O-])cc23)n1	10 µM	0.25 µM	19 µM	> 25 µM	> 25 µM	8.4 µM	13.3 µM	0.42 µM	20 µM	26 µM	0.12 µM	1.6 µM	0.66 µM
Nc1ncc(I)c(-c2c[nH]c3cc([N+](=O)[O-])ccc23)n1	10 µM	0.095 µM	13 µM	> 25 µM	12 µM	2 µM	6.3 µM	1 µM	18 µM	11 µM	0.067 µM	1.6 µM	2.6 µM
Nc1ncc(I)c(-c2c[nH]c3c([N+](=O)[O-])cccc23)n1	> 10 µM	0.46 µM	4.7 µM	> 10 µM	> 10 µM	3.2 µM	5.2 µM	> 10 µM	> 10 µM	6 µM	0.041 µM	> 10 µM	> 10 µM
Nc1ncc(-c2ccc(C(F)(F)F)cc2)c(-c2c[nH]c3c(Br)cccc23)n1	> 10 µM	1.25 µM	14 µM	> 10 µM	> 10 µM	17 µM	18 µM	> 10 µM	> 10 µM	8 µM	1.5 µM	> 10 µM	8.5 µM
Nc1ncc(I)c(-c2c[nH]c3cc(Br)ccc23)n1	3.8 µM	0.034 µM	3.5 µM	5.2 µM	3.2 µM	< 1 µM	< 1 µM	0.7 µM	5.1 µM	2.9 µM	0.032 µM	0.68 µM	1.1 µM
Nc1ncc(I)c(-c2c[nH]c3cccc([N+](=O)[O-])c23)n1	> 10 µM	9.1 µM	5 µM	> 10 µM	> 10 µM	3.3 µM	5.4 µM	> 10 µM	> 10 µM	7 µM	7.1 µM	> 10 µM	> 10 µM
COc1cccc(-c2cnc(N)nc2-c2c[nH]c3c(Br)cccc23)c1	> 10 µM	0.85 µM	31 µM	> 10 µM	> 10 µM	13 µM	33 µM	4.2 µM	> 10 µM	29 µM	0.87 µM	> 10 µM	> 10 µM
Nc1ncc(I)c(-c2c[nH]c3cccc(N)c23)n1	> 10 µM	2.8 µM	> 50 µM	> 10 µM	> 10 µM	18 µM	> 50 µM	> 10 µM	> 10 µM	> 50 µM	1 µM	> 10 µM	> 10 µM
Nc1ccc2c(-c3nc(N)ncc3I)c[nH]c2c1	> 10 µM	0.22 µM	36 µM	> 10 µM	> 10 µM	13 µM	26 µM	0.51 µM	> 10 µM	47 µM	0.08 µM	6.2 µM	4.2 µM
